Drawing on ChEMBL document CHEMBL5244279, “Perspectives on SARS-CoV-2 Main Protease Inhibitors” (J Med Chem, 2021), this text covers IC50, Ki and EC50 for 53 compounds.

Assay [1] has as its target T1, Replicase polyprotein 1ab (Severe acute respiratory syndrome coronavirus 2, UniProt P0DTD1). As to the kind of experiment: Inhibition of SARS CoV-2 Main protease using MCA-AVLQSGFR-Lys(DNP)-Lys-NH2 peptide as substrate by fluorescence based analysis.
A further assay relates to SARS-CoV-2. It is filed as functional, organism-based, Vero E6. The note with it: Severe acute respiratory syndrome coronavirus 2, strain 107, Vero C1008.
For assay [2], the target named is T1, Replicase polyprotein 1ab. As to the kind of experiment: Inhibition of SARS CoV-2 Main protease incubated for 10 min by FRET assay.

By IC50 is commonly meant the midpoint of a concentration-inhibition curve. Low values mean inhibition by little substance, high ones a need for much substance. On to `Cc1ccc(-n2sc3ccccc3c2=O)cc1`, for which the IC50 in assay [1] is 330 nM.
The same measure, in the same setting: the figure for `O=C(NCc1ccco1)c1ccc(-n2sc3ccccc3c2=O)cc1` is 380 nM; for `CCCNC(=O)c1ccc(-n2sc3ccccc3c2=O)cc1` it is 230 nM; for `Cn1sc2ccccc2c1=O` it is 780 nM.
The same measure, in the same setting: next, `C=CCn1sc2ccccc2c1=O`: 630 nM; `O=c1[nH]sc2ccccc12`: 660 nM; `CC(C)Cn1sc2ccccc2c1=O`: 480 nM.
Compound `O=C(O)c1ccc(-n2[se]c3ccccc3c2=O)cc1` came in with an IC50 in assay [1] of 130 nM.
Same read-out and setting: next, `COC(=O)c1ccc(-n2sc3ccccc3c2=O)cc1`: 360 nM.
The same measure, in the same setting: next, `O=C(O)Cn1[se]c2ccccc2c1=O`: 410 nM; `Nc1ccccc1-n1sc2ccccc2c1=O`: 130 nM.
The same measure, in the same setting: next, `O=c1c2ccccc2sn1CCO`: 410 nM; `O=c1c2ccccc2sn1-c1ccccc1`: 490 nM; `O=C(O)CCn1[se]c2ccccc2c1=O`: 350 nM.
For the compound `O=c1c2ccccc2[se]n1CCN1CCOCC1`, in assay [1], the IC50 came to 240 nM.
On the same count and under the same terms, next, `O=c1c2ccccc2[se]n1CCO`: 650 nM.
By Ki is commonly meant the equilibrium dissociation constant of an inhibitor or competing ligand from its target. In assay [1], `O=c1c2ccccc2sn1Cc1ccco1` returned an IC50 of 110 nM and a Ki of 78 nM.
For orientation: EC50 means the midpoint of the concentration-response curve. A higher EC50 goes with a need for much substance. As to `O=C[C@H](C[C@@H]1CCNC1=O)NC(=O)[C@@H]1[C@H]2CCC[C@H]2CN1C(=O)CCc1cc(F)cc(F)c1`, in the assay on SARS-CoV-2, it took 5630 nM to reach a half-maximal effect (EC50).
In turn, `O=C[C@H](C[C@@H]1CCNC1=O)NC(=O)[C@@H]1[C@H]2CCC[C@H]2CN1C(=O)COc1ccc(Cl)c(Cl)c1` yielded an IC50 in assay [2] of 30 nM. This compound also came in with an EC50 with SARS-CoV-2 of 830 nM.
The corresponding values for `COc1ccc(OCC(=O)N2C[C@H]3[C@@H]([C@H]2C(=O)N[C@H](C=O)C[C@@H]2CCNC2=O)C3(C)C)cc1OC` are 14.5 nM and 1730 nM.
The corresponding values for `CC1(C)[C@@H]2[C@@H](C(=O)N[C@H](C=O)C[C@@H]3CCNC3=O)N(C(=O)COc3ccc(F)c(F)c3)C[C@@H]21` are 13.2 nM and 5570 nM.
Compound `CC(C)(C)OC(=O)NCn1[se]c2ccccc2c1=O` registered an IC50 in assay [1] of 330 nM.
`CC1(C)[C@@H]2[C@@H](C(=O)N[C@H](C=O)C[C@@H]3CCNC3=O)N(C(=O)COc3cc(F)cc(F)c3)C[C@@H]21` showed an IC50 in assay [2] of 18.5 nM. The compound further had an EC50 with SARS-CoV-2 of 1640 nM.
As to `O=C[C@H](C[C@@H]1CCNC1=O)NC(=O)[C@@H]1[C@H]2CCC[C@H]2CN1C(=O)c1cccnc1`, in assay [2], the IC50 is 748 nM.
For `CCCCNC(=O)c1ccc(-n2sc3ccccc3c2=O)cc1`, in assay [1], the IC50 amounted to 910 nM.
On to `COc1ccc(OC(C)C(=O)N2C[C@@H]3CCC[C@@H]3[C@H]2C(=O)N[C@H](C=O)C[C@@H]2CCNC2=O)cc1` (stereo partly drawn), for which half-maximal inhibition in assay [2] (IC50) required 69.1 nM.
On the same count and under the same terms, the figure for `CN(C)c1ccc(CCC(=O)N2C[C@@H]3CCC[C@@H]3[C@H]2C(=O)N[C@H](C=O)C[C@@H]2CCNC2=O)cc1` is 378 nM.
In the case of `O=C[C@H](C[C@@H]1CCNC1=O)NC(=O)[C@@H]1[C@H]2CCC[C@H]2CN1C(=O)COc1ccc(Cl)cc1`, the concentration for a half-maximal effect (EC50) with SARS-CoV-2 was 670 nM.
`CC1(C)[C@@H]2[C@@H](C(=O)N[C@H](C=O)C[C@@H]3CCNC3=O)N(C(=O)CCc3cccc(F)c3)C[C@@H]21` returned an IC50 in assay [2] of 16.5 nM. It took 2230 nM to reach a half-maximal effect in the assay on SARS-CoV-2 (EC50).
In turn, `O=C[C@H](C[C@@H]1CCNC1=O)NC(=O)[C@@H]1[C@H]2CCC[C@H]2CN1C(=O)CCc1cccc(F)c1` registered a 50% effective concentration (EC50) in the assay with SARS-CoV-2 of 2970 nM.
In assay [2], `CC1(C)[C@@H]2[C@@H](C(=O)N[C@H](C=O)C[C@@H]3CCNC3=O)N(C(=O)COc3ccc(Cl)cc3)C[C@@H]21` registered an IC50 of 19 nM. In the assay on SARS-CoV-2, the EC50 was 530 nM.
Consider `O=c1c2ccccc2sn1CCCCc1ccccc1`, for which, in assay [1], 410 nM corresponded to half-maximal inhibition (IC50).
Take `O=C[C@H](C[C@@H]1CCNC1=O)NC(=O)[C@@H]1[C@H]2CCC[C@H]2CN1C(=O)CCc1ccc(F)c(F)c1`: in assay [2], the concentration for half-maximal inhibition (IC50) worked out at 17.4 nM. In addition, in the assay on SARS-CoV-2, the EC50 was determined as 30500 nM.
Take `O=C[C@H](C[C@@H]1CCNC1=O)NC(=O)[C@@H]1[C@H]2CCC[C@H]2CN1C(=O)c1cc2ccccc2[nH]1`: in assay [2], the 50% inhibitory concentration (IC50) came out at 153 nM.
As for `COc1ccc(OCC(=O)N2C[C@@H]3CCC[C@@H]3[C@H]2C(=O)N[C@H](C=O)C[C@@H]2CCNC2=O)cc1`, the IC50 in assay [2] stood at 36.2 nM. In the assay on SARS-CoV-2, this compound returned an EC50 of 24700 nM.
The compound `CCCn1sc2ccccc2c1=O` came in with a 50% inhibitory concentration (IC50) in assay [1] of 730 nM.
In assay [2], `COc1ccc(/C=C/C(=O)N2C[C@@H]3CCC[C@@H]3[C@H]2C(=O)N[C@H](C=O)C[C@@H]2CCNC2=O)c(OC)c1` displayed an IC50 of 196 nM.
Still for that read-out and setting: the figure for `O=C[C@H](C[C@@H]1CCNC1=O)NC(=O)[C@@H]1[C@H]2CCC[C@H]2CN1C(=O)COc1ccc2c(c1)OCCO2` is 93.5 nM.
The compound `CC1(C)[C@@H]2[C@@H](C(=O)N[C@H](C=O)C[C@@H]3CCNC3=O)N(C(=O)COc3ccc(Br)cc3Cl)C[C@@H]21` came in with an IC50 in assay [2] of 13.3 nM. Moreover, a half-maximal response in the assay on SARS-CoV-2 (EC50) required 1180 nM.
The compound `O=c1c2ccccc2[se]n1-c1cccc([N+](=O)[O-])c1` came in with a half-maximal inhibitory concentration (IC50) in assay [1] of 150 nM.
In turn, `CC1(C)[C@@H]2[C@@H](C(=O)N[C@H](C=O)C[C@@H]3CCNC3=O)N(C(=O)c3ccc4ccccc4c3)C[C@@H]21` yielded an IC50 in assay [2] of 453 nM.
Regarding `CN(C)c1ccc(/C=C/C(=O)N2C[C@@H]3CCC[C@@H]3[C@H]2C(=O)N[C@H](C=O)C[C@@H]2CCNC2=O)cc1`, in assay [2], the IC50 was determined as 375 nM.
Compound `COc1ccc(OCC(=O)N2C[C@H]3[C@@H]([C@H]2C(=O)N[C@H](C=O)C[C@@H]2CCNC2=O)C3(C)C)cc1F` gave an IC50 in assay [2] of 37.2 nM. In the assay on SARS-CoV-2, this compound yielded an EC50 of 4680 nM.
In turn, `O=C[C@H](C[C@@H]1CCNC1=O)NC(=O)[C@@H]1[C@H]2CCC[C@H]2CN1C(=O)/C=C/c1ccccc1` returned an IC50 in assay [2] of 526 nM.
In assay [2], `CC1(C)[C@@H]2[C@@H](C(=O)N[C@H](C=O)C[C@@H]3CCNC3=O)N(C(=O)COc3ccc(Cl)c(Cl)c3)C[C@@H]21` gave an IC50 of 12.4 nM. Also, the response with SARS-CoV-2 was half-maximal at 2080 nM (EC50).
On to `CC1(C)[C@@H]2[C@@H](C(=O)N[C@H](C=O)C[C@@H]3CCNC3=O)N(C(=O)COc3ccc4ccccc4c3)C[C@@H]21`, for which the IC50 in assay [2] was found to be 52.1 nM.
Same read-out and setting: next, `CC1(C)[C@@H]2[C@@H](C(=O)N[C@H](C=O)C[C@@H]3CCNC3=O)N(C(=O)COc3ccc(Br)c(Cl)c3)C[C@@H]21`: 50.8 nM.
In assay [2], `Cc1cc(Cl)ccc1OCC(=O)N1C[C@@H]2CCC[C@@H]2[C@H]1C(=O)N[C@H](C=O)C[C@@H]1CCNC1=O` returned a 50% inhibitory concentration (IC50) of 19.7 nM. The compound also came in with an EC50 in the assay on SARS-CoV-2 of 1500 nM.
The corresponding values for `CC1(C)[C@@H]2[C@@H](C(=O)N[C@H](C=O)C[C@@H]3CCNC3=O)N(C(=O)COc3ccc(Cl)cc3Cl)C[C@@H]21` are 13 nM and 660 nM.
In assay [2], `O=C[C@H](C[C@@H]1CCNC1=O)NC(=O)[C@@H]1[C@H]2CCC[C@H]2CN1C(=O)c1cc2ccccn2n1` gave an IC50 of 299 nM.
With `O=C[C@H](C[C@@H]1CCNC1=O)NC(=O)[C@@H]1[C@H]2CCC[C@H]2CN1C(=O)COc1ccc(Cl)cc1F`, in assay [2], the IC50 turned out to be 34.7 nM. For the same compound, the EC50 in the assay on SARS-CoV-2 was 1650 nM.
Regarding `O=c1c2ccccc2sn1-c1ccc(Cl)cc1`, in assay [1], the IC50 is 390 nM.
Same read-out and setting: the figure for `O=c1c2ccccc2sn1Cc1ccccc1` is 170 nM.
